Source: patent EP0527889B1, “QUINOLIZINONE TYPE COMPOUNDS” (priority 1990, dated 1991)
Converted amounts (≈) assume the structure as drawn. Where a name gives a salt, the structure may show the parent alone.

Key:
Assay in all cases: In vitro antibacterial activity, MIC by agar dilution
Type in all cases: cell-based
Conditions in all cases: BHI agar, 35-37°C, 20-24 hours, unit assumed
[1] = tested on: Streptococcus agalactaciae CMX 508
Protocol: (§1) Each plate was inoculated with 1:100 (or 1:10 for slow growing strains, primarily Micrococcus and Streptococcus) dilutions of up to 32 different microorganisms, using a Steers replicator block calibrated to deliver approximately 10^4 colony forming units (CFUs). The inoculated plates were incubated at from about 35°C to about 37°C for approximately 20-24 hours. In addition, a control plate using BHI agar containing no test compound was prepared and incubated at the beginning and at the end of each test. Ciprofloxacin was used as the control antibiotic.
(§2) The MIC was defined as the lowest concentration of test compound yielding no growth (a slight haze or sparsely isolated colonies at the inoculum spot) as compared to the growth control containing no test compound.

Escherichia coli DC-2 = tested on: Escherichia coli DC-2
Protocol: as §1, §2

Escherichia coli KNK 437 = tested on: Escherichia coli KNK 437
Protocol: as §1, §2

[2] = tested on: Staphylococcus epidermidis 3519
Protocol: as §1, §2

[3] = tested on: Pseudomonas aeruginosa 2862
Protocol: as §1, §2

Escherichia coli SS = tested on: Escherichia coli SS
Protocol: as §1, §2

[4] = tested on: Staphylococcus aureus 1775
Protocol: as §1, §2

[5] = tested on: Enterococcus faecium ATCC 8043
Protocol: as §1, §2

[6] = tested on: Klebsiella pneumoniae ATCC 8045
Protocol: as §1, §2

[7] = tested on: Streptococcus bovis A5169
Protocol: as §1, §2

[8] = tested on: Staphylococcus aureus 642A
Protocol: as §1, §2

[9] = tested on: Staphylococcus aureus CMX 553
Protocol: as §1, §2

[10] = tested on: Providencia stuartii CMX 640
Protocol: as §1, §2

[11] = tested on: Pseudomonas aeruginosa 5263
Protocol: as §1, §2

[12] = tested on: Pseudomonas aeruginosa K799/WT
Protocol: as §1, §2

Pseudomonas cepacia 296I = tested on: Pseudomonas cepacia 296I
Protocol: as §1, §2

[13] = tested on: Micrococcus luteus ATCC 4698
Protocol: as §1, §2

[14] = tested on: Pseudomonas aeruginosa BMH10
Protocol: as §1, §2

[15] = tested on: Streptococcus pyrogenes 2548 INDUC
Protocol: as §1, §2

[16] = tested on: Streptococcus pyrogenes CONST
Protocol: as §1, §2

[17] = tested on: Staphylococcus aureus A-5278
Protocol: as §1, §2

[18] = tested on: Staphylococcus aureus A5177
Protocol: as §1, §2

[19] = tested on: Enterobacter aerogenes ATCC 13048
Protocol: as §1, §2

[20] = tested on: Streptococcus pyrogenes EES61
Protocol: as §1, §2

Escherichia coli JUHL = tested on: Escherichia coli JUHL
Protocol: as §1, §2

Escherichia coli H560 = tested on: Escherichia coli H560
Protocol: as §1, §2

[21] = tested on: Staphylococcus aureus NCTC 10649
Protocol: as §1, §2

[22] = tested on: Pseudomonas aeruginosa K799/61
Protocol: as §1, §2

[23] = tested on: Staphylococcus aureus ATCC 6538P
Protocol: as §1, §2

[24] = tested on: Pseudomonas aeruginosa A5007
Protocol: as §1, §2

[25] = tested on: Acinetobacter calcoaceticus CMX 669
Protocol: as §1, §2

[26] = tested on: Micrococcus luteus ATCC 9341
Protocol: as §1, §2

SMILES	MIC values [1] [µg/mL]	MIC values (Escherichia coli DC-2) [µg/mL]	MIC values (Escherichia coli KNK 437) [µg/mL]	MIC values [2] [µg/mL]	MIC values (Escherichia coli SS) [ng/mL]	MIC values [5] [µg/mL]	MIC values [9] [µg/mL]	MIC values [11] [µg/mL]	MIC values [12] [µg/mL]	MIC values (Pseudomonas cepacia 296I) [µg/mL]	MIC values [13] [µg/mL]	MIC values [14] [µg/mL]	MIC values [16] [µg/mL]	MIC values [18] [µg/mL]	MIC values [20] [µg/mL]	MIC values (Escherichia coli H560) [µg/mL]	MIC values [21] [µg/mL]	MIC values [22] [µg/mL]	MIC values [23] [µg/mL]	MIC values [25] [µg/mL]	other results
O=C(O)c1cn(C2CC2)c2cc(N3CCNCC3)c(F)cc2c1=O [Cntl, Ciprofloxacin, reference compound]	0.39 (≈ 1.18 µM)	0.2 (≈ 0.604 µM)	0.2 (≈ 0.604 µM)	0.39 (≈ 1.18 µM)	5 (≈ 0.0151 µM)	0.39 (≈ 1.18 µM)	0.78 (≈ 2.35 µM)	12.5 (≈ 37.7 µM)	0.1 (≈ 0.302 µM)	3.1 (≈ 9.36 µM)	0.78 (≈ 2.35 µM)	0.1 (≈ 0.302 µM)	0.78 (≈ 2.35 µM)	0.39 (≈ 1.18 µM)	0.39 (≈ 1.18 µM)	0.01 (≈ 0.0302 µM)	0.39 (≈ 1.18 µM)	0.02 (≈ 0.0604 µM)	0.2 (≈ 0.604 µM)	0.39 (≈ 1.18 µM)	MIC values [3]: 25 µg/mL (≈ 75.4 µM); MIC values [4]: > 100 µg/mL; MIC values [6]: 0.02 µg/mL (≈ 0.0604 µM); MIC values [7]: 1.56 µg/mL (≈ 4.71 µM); MIC values [8]: 0.39 µg/mL (≈ 1.18 µM); MIC values [10]: 0.78 µg/mL (≈ 2.35 µM); MIC values [15]: 0.39 µg/mL (≈ 1.18 µM); MIC values [17]: 0.39 µg/mL (≈ 1.18 µM); MIC values [19]: 0.05 µg/mL (≈ 0.151 µM); MIC values (Escherichia coli JUHL): 0.01 µg/mL (≈ 0.0302 µM); MIC values [24]: 0.1 µg/mL (≈ 0.302 µM); MIC values [26]: 1.56 µg/mL (≈ 4.71 µM)
NC1CCN(c2nc3c(C4CC4)cc(C(=O)O)c(=O)n3cc2F)C1 (centres unmarked) [Example 157, 2-(3-Aminopyrrolidin-1-yl)-9-cyclopropyl-3-fluoro-6H-6-oxo-pyrido[1,2-a]pyrimidine-7-carboxylic acid hydrochloride salt]	1.56	0.39	0.39	0.39	10	1.56	0.39	50	0.2	3.1	1.56	0.2	1.56	0.39	1.56	0.02	0.2	0.05	0.2	0.2	MIC values ([3]; hydrochloride salt): 25 µg/mL; MIC values ([4]; hydrochloride salt): 25 µg/mL; MIC values ([6]; hydrochloride salt): 0.02 µg/mL; MIC values ([7]; hydrochloride salt): 3.1 µg/mL; MIC values ([8]; hydrochloride salt): 0.39 µg/mL; MIC values ([10]; hydrochloride salt): 1.56 µg/mL; MIC values ([15]; hydrochloride salt): 0.39 µg/mL; MIC values ([17]; hydrochloride salt): 0.39 µg/mL; MIC values ([19]; hydrochloride salt): 0.02 µg/mL; MIC values (Escherichia coli JUHL): 0.02 µg/mL; MIC values ([24]; hydrochloride salt): 0.39 µg/mL; MIC values [26]: 3.1 µg/mL
CN1CCN(c2nc3c(-c4ccc(F)cc4F)cc(C(=O)O)c(=O)n3cc2F)CC1 [Example 159, 9-(2,4-Difluorophenyl)-3-fluoro-2-(4-methylpiperazin-1-yl)-6H-6-oxopyridol[1,2-a]pyrimidine-7-carboxylic acid]	3.1 (≈ 7.41 µM)	6.2 (≈ 14.8 µM)	6.2 (≈ 14.8 µM)	0.39 (≈ 0.932 µM)	20 (≈ 0.0478 µM)	6.2 (≈ 14.8 µM)	0.39 (≈ 0.932 µM)	> 100	3.1 (≈ 7.41 µM)	25 (≈ 59.8 µM)	12.5 (≈ 29.9 µM)	3.1 (≈ 7.41 µM)	3.1 (≈ 7.41 µM)	0.39 (≈ 0.932 µM)	3.1 (≈ 7.41 µM)	0.39 (≈ 0.932 µM)	0.2 (≈ 0.478 µM)	0.39 (≈ 0.932 µM)	0.2 (≈ 0.478 µM)	0.78 (≈ 1.86 µM)	MIC values [3]: > 100 µg/mL; MIC values [4]: > 100 µg/mL; MIC values [6]: 0.2 µg/mL (≈ 0.478 µM); MIC values [7]: 12.5 µg/mL (≈ 29.9 µM); MIC values [8]: 0.39 µg/mL (≈ 0.932 µM); MIC values [10]: 25 µg/mL (≈ 59.8 µM); MIC values [15]: 3.1 µg/mL (≈ 7.41 µM); MIC values [17]: 0.2 µg/mL (≈ 0.478 µM); MIC values [19]: 0.78 µg/mL (≈ 1.86 µM); MIC values (Escherichia coli JUHL): 0.39 µg/mL (≈ 0.932 µM); MIC values [24]: 6.2 µg/mL (≈ 14.8 µM); MIC values [26]: 25 µg/mL (≈ 59.8 µM)
CC(C)(C)OC(=O)NC1CCN(c2nc3c(-c4ccc(F)cc4F)cc(C(=O)O)c(=O)n3cc2F)C1 (centres unmarked) [Example 160, 2-(3-(N-t-butoxycarbonyl)aminopyrrolidin-1-yl)-9-(2,4-difluorophenyl)-3-fluoro-6H-6-oxopyrido[1,2-a]pyrimidine-7-carboxylic acid]	1.56 (≈ 3.09 µM)	25 (≈ 49.6 µM)	25 (≈ 49.6 µM)	0.39 (≈ 0.773 µM)	5 (≈ 0.00991 µM)	3.1 (≈ 6.15 µM)	0.39 (≈ 0.773 µM)	> 100	12.5 (≈ 24.8 µM)	> 100	0.78 (≈ 1.55 µM)	12.5 (≈ 24.8 µM)	1.56 (≈ 3.09 µM)	0.39 (≈ 0.773 µM)	1.56 (≈ 3.09 µM)	3.1 (≈ 6.15 µM)	0.2 (≈ 0.396 µM)	3.1 (≈ 6.15 µM)	0.2 (≈ 0.396 µM)	3.1 (≈ 6.15 µM)	MIC values [3]: > 100 µg/mL; MIC values [4]: 100 µg/mL (≈ 198 µM); MIC values [6]: 1.56 µg/mL (≈ 3.09 µM); MIC values [7]: 6.2 µg/mL (≈ 12.3 µM); MIC values [8]: 0.2 µg/mL (≈ 0.396 µM); MIC values [10]: > 100 µg/mL; MIC values [15]: 0.78 µg/mL (≈ 1.55 µM); MIC values [17]: 0.2 µg/mL (≈ 0.396 µM); MIC values [19]: 12.5 µg/mL (≈ 24.8 µM); MIC values (Escherichia coli JUHL): 0.39 µg/mL (≈ 0.773 µM); MIC values [24]: 25 µg/mL (≈ 49.6 µM); MIC values [26]: 6.2 µg/mL (≈ 12.3 µM)
NC1CCN(c2nc3c(-c4ccc(F)cc4F)cc(C(=O)O)c(=O)n3cc2F)C1 (centres unmarked) [Example 161, 2-(3-Aminopyrrolidin-1-yl)-9-(2,4-difluorophenyl)-3-fluoro-6H-6-oxopyrido[1,2-a]pyrimidine-7-carboxylic acid]	0.39 (≈ 0.965 µM)	0.2 (≈ 0.495 µM)	0.2 (≈ 0.495 µM)	0.1 (≈ 0.247 µM)	5 (≈ 0.0124 µM)	0.78 (≈ 1.93 µM)	0.1 (≈ 0.247 µM)	100 (≈ 247 µM)	0.2 (≈ 0.495 µM)	3.1 (≈ 7.67 µM)	3.1 (≈ 7.67 µM)	0.2 (≈ 0.495 µM)	0.39 (≈ 0.965 µM)	0.1 (≈ 0.247 µM)	0.39 (≈ 0.965 µM)	0.02 (≈ 0.0495 µM)	0.05 (≈ 0.124 µM)	0.05 (≈ 0.124 µM)	0.05 (≈ 0.124 µM)	0.05 (≈ 0.124 µM)	MIC values [3]: 100 µg/mL (≈ 247 µM); MIC values [4]: 100 µg/mL (≈ 247 µM); MIC values [6]: 0.01 µg/mL (≈ 0.0247 µM); MIC values [7]: 1.56 µg/mL (≈ 3.86 µM); MIC values [8]: 0.1 µg/mL (≈ 0.247 µM); MIC values [10]: 1.56 µg/mL (≈ 3.86 µM); MIC values [15]: 0.1 µg/mL (≈ 0.247 µM); MIC values [17]: 0.1 µg/mL (≈ 0.247 µM); MIC values [19]: 0.05 µg/mL (≈ 0.124 µM); MIC values (Escherichia coli JUHL): 0.02 µg/mL (≈ 0.0495 µM); MIC values [24]: 0.2 µg/mL (≈ 0.495 µM); MIC values [26]: 3.1 µg/mL (≈ 7.67 µM)
O=C(O)c1cc(-c2ccc(F)cc2F)c2nc(N3CCC(O)C3)c(F)cn2c1=O (centres unmarked) [Example 170, 9-(2,4-Difluorophenyl)-3-fluoro-2-(3-hydroxypyrrolidin-1-yl)-6H-6-oxopyrido[1,2-a]pyrimidine-7-carboxylic acid]	0.78 (≈ 1.92 µM)	3.1 (≈ 7.65 µM)	1.56 (≈ 3.85 µM)	0.2 (≈ 0.493 µM)	1 (≈ 0.00247 µM)	0.78 (≈ 1.92 µM)	0.2 (≈ 0.493 µM)	> 100	0.78 (≈ 1.92 µM)	6.2 (≈ 15.3 µM)	1.56 (≈ 3.85 µM)	0.78 (≈ 1.92 µM)	0.78 (≈ 1.92 µM)	0.1 (≈ 0.247 µM)	0.78 (≈ 1.92 µM)	0.1 (≈ 0.247 µM)	0.05 (≈ 0.123 µM)	0.05 (≈ 0.123 µM)	0.05 (≈ 0.123 µM)	0.2 (≈ 0.493 µM)	MIC values [3]: > 100 µg/mL; MIC values [4]: 100 µg/mL (≈ 247 µM); MIC values [6]: 0.05 µg/mL (≈ 0.123 µM); MIC values [7]: 6.2 µg/mL (≈ 15.3 µM); MIC values [8]: 0.1 µg/mL (≈ 0.247 µM); MIC values [10]: 6.2 µg/mL (≈ 15.3 µM); MIC values [15]: 0.39 µg/mL (≈ 0.962 µM); MIC values [17]: 0.1 µg/mL (≈ 0.247 µM); MIC values [19]: 0.39 µg/mL (≈ 0.962 µM); MIC values [24]: 0.78 µg/mL (≈ 1.92 µM); MIC values [26]: 12.5 µg/mL (≈ 30.8 µM)
